Source: PubChem BioAssay AID2060491 (Molecular Pharmacology Branch, DTP, NCI, 2025)
Where “and” joins values, the source holds several entries; their conditions need not be identical. Identical values can stand only once.

System: 857933-349-R-J2-PDC complex spheroids, viability
Assay: Anticancer human tumor 857933-349-R-J2-PDC patient-derived colon adenocarcinoma cell line growth inhibition [GQUAD]
Conditions: for viability, T/C: stronger effect = lower value
From the text: DNA G-quadruplex Stabilizer Agents in Combinations in Complex Spheroids
A high-throughput screen of multi-cell type tumor spheroids was designed to identify active combinations of DNA G-quadruplex stabilizer agents and targeted small molecules. Complex spheroids include a stromal component modeled by human endothelial cells (HUVEC) and fibroblasts modeled by human mesenchymal stem cells (MSCs). The concentration ranges selected for each drug and investigational agent were based upon clinically achievable concentrations if the clinical Cmax of the agent was known.
Compounds. The drugs and investigational agents: pidnarulex (CX-5461; NSC782164), APTO-253 (NSC789042), BRACO-19 (NSC847499), peposertib (NSC802822), ceralasertib (NSC780249), elimusertib (NSC800525), camonsertib (NSC841442), AZD-1390 (NSC803789), olaparib (NSC753686), talazoparib (NSC767125), ART-558 (NSC835418), sotorasib (NSC818433), MRTX-1133 (NSC836407), SN-38 (NSC673596), topotecan (NSC609699), etoposide (NSC141540), doxorubicin (NSC123127), gemcitabine (NSC613327), 5-fluorouracil (NSC19893), paclitaxel (NSC125973), vemurafenib (NSC761431), panobinostat (NSC761190), R-306465 (JNJ-16241199; NSC773264), adavosertib (NSC754352), TP-3654 (NSC805149), carboplatin (NSC241240), KSQ-4279 (NSC840948), and staurosporine (NSC755774) were obtained from the National Cancer Institute (NCI) Developmental Therapeutics Program Chemical Repository (34). The FDA-approved anticancer drug set is available from the NCI Developmental Therapeutics Program. […] The stock solutions were prepared in dimethyl sulfoxide (DMSO, Sigma-Aldrich, St. Louis, MO, cat. D2650) at 800-fold the tested concentration and stored at -70 degrees C prior to their use. All drugs and investigational agents were tested over a range starting from a high concentration at or near the clinical Cmax and decreasing in half-log increments. If the clinical Cmax for an agent had not been determined, the highest concentration tested was 10 microM.
2.3 Cell Culture. All cells were maintained in an incubator at 37 degrees C and 5% CO2 with 95% humidity. The PDC lines were cultured according to standard operating procedures established by the NCI PDMR. All PDCs were thawed and cultured in Matrigel-coated flasks prepared with a working solution of 1X Ham's F-12 nutrient mix, without supplementation (Invitrogen, cat. 11765054), 100 U/mL penicillin-streptomycin (Invitrogen, cat. 15140122), and 2.5% Matrigel (Corning Inc., cat. 354248) for the first three passages. The 857933-349-R-J2-PDC line was cultured in 6C/Colon 1B media, which includes advanced DMEM/F-12 (Thermo Fisher Scientific, cat. 12634028), 10 mM HEPES (Thermo Fisher Scientific, cat. 15630080), 1X GlutaMAX supplement (Thermo Fisher Scientific, cat. 35050061), 0.1 mg/mL primocin (InvivoGen, cat. ant-pm-2), 10% defined fetal bovine serum, heat inactivated (HyClone Laboratories Inc., cat. SH30070.03HI), 50% L-WRN conditioned media (ATCC, cat. CRL-3276), 1.25 mM N-Acetyl-L-cysteine (Sigma-Aldrich, cat. A9165), 10 mM nicotinamide (Sigma-Aldrich, cat. N0636), 1X B-27 supplement (Thermo Fisher Scientific, cat. 17504044), 1X N-2 supplement (Thermo Fisher Scientific, cat. 17502048), 10 microM Y-27632 dihydrochloride (Tocris Bioscience, cat. 1254), and 50 ng/mL human EGF recombinant protein (Thermo Fisher Scientific, cat. PHG0311). The 485176-168-R4-J1-PDC line was cultured in Panc media, which includes all 6C/Colon 1B media components plus 100 ng/mL human FGF-10 (Thermo Fisher Scientific, cat. 100-26), 500 nM SB-431542 (Selleckchem, cat. S1067), and gastrin (Tocris, cat. 3006).
[…]

[1] = curve of first compound, second compound 0.0316 µM
[2] = curve of first compound, second compound 0.1 µM
[3] = curve of first compound, second compound 0.316 µM
[4] = curve of first compound, second compound 1 µM
[5] = curve of first compound, second compound 3.16 µM
[6] = curve of first compound, second compound 10 µM
[7] = second compound 0.0316 µM, first compound 0.0316 µM
[8] = second compound 0.0316 µM, first compound 0.1 µM
[9] = second compound 0.0316 µM, first compound 0.316 µM
[10] = second compound 0.0316 µM, first compound 1 µM
[11] = second compound 0.0316 µM, first compound 3.16 µM
[12] = second compound 0.0316 µM, first compound 10 µM
[13] = second compound 0.1 µM, first compound 0.0316 µM
[14] = second compound 0.1 µM, first compound 0.1 µM
[15] = second compound 0.1 µM, first compound 0.316 µM
[16] = second compound 0.1 µM, first compound 1 µM
[17] = second compound 0.1 µM, first compound 3.16 µM
[18] = second compound 0.1 µM, first compound 10 µM
[19] = second compound 0.316 µM, first compound 0.0316 µM
[20] = second compound 0.316 µM, first compound 0.1 µM
[21] = second compound 0.316 µM, first compound 0.316 µM
[22] = second compound 0.316 µM, first compound 1 µM
[23] = second compound 0.316 µM, first compound 3.16 µM
[24] = second compound 0.316 µM, first compound 10 µM
[25] = second compound 1 µM, first compound 0.0316 µM
[26] = second compound 1 µM, first compound 0.1 µM
[27] = second compound 1 µM, first compound 0.316 µM
[28] = second compound 1 µM, first compound 1 µM
[29] = second compound 1 µM, first compound 3.16 µM
[30] = second compound 1 µM, first compound 10 µM
[31] = second compound 3.16 µM, first compound 0.0316 µM
[32] = second compound 3.16 µM, first compound 0.1 µM
[33] = second compound 3.16 µM, first compound 0.316 µM
[34] = second compound 3.16 µM, first compound 1 µM
[35] = second compound 3.16 µM, first compound 3.16 µM
[36] = second compound 3.16 µM, first compound 10 µM
[37] = second compound 10 µM, first compound 0.0316 µM
[38] = second compound 10 µM, first compound 0.1 µM
[39] = second compound 10 µM, first compound 0.316 µM
[40] = second compound 10 µM, first compound 1 µM
[41] = second compound 10 µM, first compound 3.16 µM
[42] = second compound 10 µM, first compound 10 µM
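Note: spheroids exposed to compounds for one week before readout.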
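Throughout, for viability, T/C: percent viability relative to vehicle DMSO wells taken as 100%.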

`C#Cc1c(F)ccc2cc(O)cc(-c3ncc4c(N5CC6CCC(C5)N6)nc(OCC56CCCN5CC(F)C6)nc4c3F)c12` (stereo not given) + CN(C)c1ccc(Nc2c3ccc(NC(=O)CCN4CCCC4)cc3nc3cc(NC(=O)CCN4CCCC4)ccc23)cc1 gave an IC50 [1] greater than 10000 nM, an IC50 [2] greater than 10000 nM and an IC50 [3] greater than 10000 nM. It also gave an IC50 [4] greater than 10000 nM, an IC50 [5] greater than 10000 nM and an IC50 [6] greater than 10000 nM. The viability, T/C [7] was 111%, the viability, T/C [8] was 96.2% and the viability, T/C [9] was 98.1%. For the same compound, the viability, T/C [10] was 96.8%, the viability, T/C [11] was 102% and the viability, T/C [12] was 90.3%. It also gave a viability, T/C [13] of 104%, a viability, T/C [14] of 104% and a viability, T/C [15] of 96.1%. It also gave a viability, T/C [16] of 101%, a viability, T/C [17] of 94.3% and a viability, T/C [18] of 94.6%. It also gave a viability, T/C [19] of 99.1%, a viability, T/C [20] of 97% and a viability, T/C [21] of 95.5%. For the same compound, the viability, T/C [22] was 92%, the viability, T/C [23] was 96.2% and the viability, T/C [24] was 87%. It also gave a viability, T/C [25] of 97.1%, a viability, T/C [26] of 88.7% and a viability, T/C [27] of 91.3%. It also gave a viability, T/C [28] of 77.8%, a viability, T/C [29] of 91.4% and a viability, T/C [30] of 80.3%. It also gave a viability, T/C [31] of 81.6%, a viability, T/C [32] of 75.1% and a viability, T/C [33] of 80.6%. The viability, T/C [34] was 69.7%, the viability, T/C [35] was 78.2% and the viability, T/C [36] was 74.7%. For the same compound, the viability, T/C [37] was 67.4%, the viability, T/C [38] was 67.5% and the viability, T/C [39] was 63.5%. For the same compound, the viability, T/C [40] was 68.8%, the viability, T/C [41] was 71% and the viability, T/C [42] was 58.9%.
For `CC(C)n1c(=O)n(C)c2cnc3cc(F)c(-c4ccc(OCCCN5CCCCC5)nc4)cc3c21`, the viability, T/C (compound 0.0316 µM) was 105% and 109% (2×), the viability, T/C (compound 0.1 µM) was 101% and 106% and 90.6% and the viability, T/C (compound 0.316 µM) was 104% and 109% and 108%. For the same compound, the viability, T/C (compound 1 µM) was 98.6% and 103% and 99.5%, the viability, T/C (compound 3.16 µM) was 104% and 110% and 107% and the viability, T/C (compound 10 µM) was 78.2% and 107% and 72.4%. The IC50 (curve of compound) was greater than 10000 nM.
In the case of `CN(C)c1ccc(Nc2c3ccc(NC(=O)CCN4CCCC4)cc3nc3cc(NC(=O)CCN4CCCC4)ccc23)cc1`, the viability, T/C (compound 0.0316 µM) is reported as 104% [middle of 12 runs], the viability, T/C (compound 0.1 µM) is reported as 105% [middle of 12 runs] and the viability, T/C (compound 0.316 µM) is reported as 106% [middle of 12 runs]. For the same compound, the viability, T/C (compound 1 µM) was 103% [middle of 12 runs], the viability, T/C (compound 3.16 µM) was 88.4% [middle of 12 runs] and the viability, T/C (compound 10 µM) was 74.7% [middle of 12 runs]. For the same compound, the IC50 (compound alone, run of 02/26/2024) was greater than 10000 nM.
Compound `CCCS(=O)(=O)Nc1ccc(F)c(C(=O)c2c[nH]c3ncc(-c4ccc(Cl)cc4)cc23)c1F` + Cc1cnc(CNC(=O)c2c(=O)c3ccc(N4CCCN(C)CC4)nc3n3c2sc2ccccc23)cn1 has an IC50 [1] of 5200 nM, an IC50 [2] of 1720 nM and an IC50 [3] of less than 31.6 nM. For the same compound, the IC50 [4] was less than 31.6 nM, the IC50 [5] was less than 31.6 nM and the IC50 [6] was less than 31.6 nM. For the same compound, the viability, T/C [7] was 85.1%, the viability, T/C [8] was 88.8% and the viability, T/C [9] was 77.6%. The viability, T/C [10] was 83.8%, the viability, T/C [11] was 86.5% and the viability, T/C [12] was 4.81%. The viability, T/C [13] was 56.2%, the viability, T/C [14] was 58.5% and the viability, T/C [15] was 52.4%. For the same compound, the viability, T/C [16] was 48.9%, the viability, T/C [17] was 47.5% and the viability, T/C [18] was 3.42%. For the same compound, the viability, T/C [19] was 24%, the viability, T/C [20] was 20.3% and the viability, T/C [21] was 19.5%. For the same compound, the viability, T/C [22] was 12.1%, the viability, T/C [23] was 5.66% and the viability, T/C [24] was 1.91%. For the same compound, the viability, T/C [25] was 3.43%, the viability, T/C [26] was 2.87% and the viability, T/C [27] was 2.84%. It also gave a viability, T/C [28] of 2.64%, a viability, T/C [29] of 3.04% and a viability, T/C [30] of 1.06%. The viability, T/C [31] was 2.4%, the viability, T/C [32] was 2.36% and the viability, T/C [33] was 2.38%. It also gave a viability, T/C [34] of 1.58%, a viability, T/C [35] of 2.13% and a viability, T/C [36] of 0.14%. It also gave a viability, T/C [37] of 0.2%, a viability, T/C [38] of 0.21% and a viability, T/C [39] of 0.23%. It also gave a viability, T/C [40] of 0.22%, a viability, T/C [41] of 0.23% and a viability, T/C [42] of 0.22%.
In the case of `O=C(NO)c1cnc(N2CCN(S(=O)(=O)c3ccc4ccccc4c3)CC2)nc1`, the viability, T/C (compound 0.0316 µM) is reported as 112% and 103% and 107%, the viability, T/C (compound 0.1 µM) is reported as 105% and 103% and 92.6% and the viability, T/C (compound 0.316 µM) is reported as 104% and 103% and 82.3%. For the same compound, the viability, T/C (compound 1 µM) was 75.6% and 75% and 19.8%, the viability, T/C (compound 3.16 µM) was 0.92% and 0.99% and 0.08% and the viability, T/C (compound 10 µM) was 0.38% and 0.52% and 0.08%. The IC50 (curve of compound) was 1490 nM and 1480 nM and 570 nM.
